Test results: patent publication US20200038355A1, “ANTIOXIDANTS FOR USE IN OPHTHALMIC SURGERY” (Case Western Reserve University, priority 2017, published 2020)
Entries after “also recorded” stand apart in the source; their conditions may differ.

What was measured:
lens explant = assay: Mouse lens explant culture (ex vivo PCO mimetic model), αSMA immunofluorescence; type: cell-based; conditions: 10 mM NAC or 0.5 mM GSH-EE co-incubated with 1 ng/ml TGFβ2, 48 hr
Protocol: The isolated intact lens was rinsed three times with HBSS and then cultured in 12-well-plates with serum-free Medium 199 (ThermoFisher) with 50 unit/ml penicillin streptomycin at 37° C. in 5% CO2 incubator, as described above. The lens explant was cultured following the same procedure as described by a previous report. Tamiya et al., Exp Eye Res 71, 591-597 (2000). In brief, the mouse lens was placed in an anterior-toposterior orientation with the anterior attached to the culture dish. The lens posterior capsule was torn/cut by the tip of extra-fine forceps and then peeled towards anterior capsule and pinned on the plastic culture dish. The lens fiber mass was removed thereafter. The explant was cultured in serum-free MEM medium supplied with 50 unit/ml penicillin streptomycin at 37° C. in 5% CO2 incubator as described above. Only healthy growing explants were used for the described study and any unhealthy looking explants, such as folded explants or those with cell detachment, were discarded.
Cells were placed 24 hr before the treatment and fresh medium was replaced immediately before the treatment. The indicated concentrations of BSO, DMF, NAC, GSH-EE or TGFβ2 were added to fresh medium and incubated at various time intervals as indicated. After treatment time, the cells were harvested after three washes with ice-cold PBS and subjected to immunoblot or other assays as described below. For whole lens culture, the serum-free medium with or without BSO, NAC, GSH-EE or TGFβ2 was incubated immediately after isolation for 48 hr and the whole lens or lens capsule was collected for further analysis. […]
Confocal microscope—All confocal images were collected by a Leica SP8 gSTED confocal microscope equipped with two 3 Hyd SP GaAsP detectors and the AOBS system lasers include a 405 nm, Argon (458, 476, 488, 496, 514 nm), a tunable white light (470 to 670 nm), and a 592 nm STED depletion laser. For proper comparison, each channel of fluorescence was adjusted to the highest sensitivity/intensity but without over saturation from samples with the strongest signal. […]

[1] = system: mouse lens ex vivo culture; assay: Mouse whole lens ex vivo culture, lens capsule immunoblot; type: cell-based; conditions: for αSMA production after BSO stimulation: ex vivo cultured mouse lens (lens capsule), 10 mM NAC or 0.5 mM GSH-EE with 500 μM BSO, 48 hr; for TGFβ2-mediated αSMA production: lens capsule from whole lens culture, 10 mM NAC or 0.5 mM GSH-EE with 1 ng/ml TGFβ2, 48 hr
Protocol: The isolated intact lens was rinsed three times with HBSS and then cultured in 12-well-plates with serum-free Medium 199 (ThermoFisher) with 50 unit/ml penicillin streptomycin at 37° C. in 5% CO2 incubator, as described above. The lens explant was cultured following the same procedure as described by a previous report. […] et al., Exp Eye Res 71, 591-597 (2000). In brief, the mouse lens was placed in an anterior-toposterior orientation with the anterior attached to the culture dish. The lens posterior capsule was torn/cut by the tip of extra-fine forceps and then peeled towards anterior capsule and pinned on the plastic culture dish. The lens fiber mass was removed thereafter. The explant was cultured in serum-free MEM medium supplied with 50 unit/ml penicillin streptomycin at 37° C. in 5% CO2 incubator as described above. Only healthy growing explants were used for the described study and any unhealthy looking explants, such as folded explants or those with cell detachment, were discarded. Cells were placed 24 hr before the treatment and fresh medium was replaced immediately before the treatment. The indicated concentrations of BSO, DMF, NAC, GSH-EE or TGFβ2 were added to fresh medium and incubated at various time intervals as indicated. After treatment time, the cells were harvested after three washes with ice-cold PBS and subjected to immunoblot or other assays as described below. For whole lens culture, the serum-free medium with or without BSO, NAC, GSH-EE or TGFβ2 was incubated immediately after isolation for 48 hr and the whole lens or lens capsule was collected for further analysis. For lens explant culture, 48 hr after explant culture, various stimulates were used in fresh serum-free medium for an additional 48 hr, and the explant was fixed with 10% formaldehyde for 10 min before immunofluorescence stain, as described below. The cells, whole lens, lens capsule, and lens fibers were collected and lysed in lysis buffer containing 20 mM Tris pH 7.5, 1 mM EDTA, 1 mM EGTA, 150 mM NaCl, 1% Triton X-100, 2.5 mM sodium pyrophosphate, 1 mM bα-Glycerolphosphate, 1 mM Na3VO4, 1 mg/ml Leupeptin, 1 mM PMSF on ice for 10 min. The protein concentration from the supernatant was determined by protein BCA assay (ThermoFisher). The protein extract was further processed for immunoblot analysis and probed for αSMA, collagen I, vimentin, phosphorylated Smad2, phosphorylated Smad3, phosphorylated GSK-3β and (β-catenin. All data were normalized to the level of GAPDH.

SMILES | TGFβ2-induced αSMA elevation in lens explant (lens explant) | αSMA production after BSO stimulation [1] | TGFβ2-mediated αSMA production [1] | TGFβ2-mediated αSMA production ([1]; listed as GSHEE)
CCOC(=O)CNC(=O)[C@H](CS)NC(=O)CC[C@H](N)C(=O)O [GSH-EE, glutathione ethyl ester] | partially, but significantly, attenuated | alleviated; also recorded: partially, but significantly, block | significantly alleviate | alleviated
CC(=O)N[C@@H](CS)C(=O)O [NAC, N-acetyl cysteine] | attenuated; also recorded: completely alleviated | alleviated; also recorded: completely abolish | alleviated; also recorded: completely block | 
